{"source": "patent US10292953B2", "about": "(priority 2013, dated 2019)", "origin": "cited, not measured here", "key": {"porcine cornea": {"test_system": "porcine cornea", "conditions": "solution, in vitro"}, "corneal pain [1]": {"test_system": "corneal pain", "conditions": "dogs, aqueous solution of 1%, topical ocular"}, "corneal pain [2]": {"test_system": "corneal pain", "conditions": "cats, aqueous solution of 1%, topical ocular"}, "ulceration of the cornea": {"test_system": "ulceration of the cornea", "conditions": "1% topical solution, rabbits with ulceration of the cornea"}}, "note": "Read-outs that look alike come from different tables or passages of the source.", "data": [{"smiles": "CC(C)Cc1ccc(C(C)C(=O)O)cc1.NCCCC[C@H](N)C(=O)O", "note": "(centres unmarked)", "values": [{"measurement": "effect on integrity of the cornea", "setting": "porcine cornea", "result": "adversely affected the integrity of the cornea"}]}, {"smiles": "CN1CC[C@]23c4c5ccc(O)c4O[C@H]2[C@@H](O)C=C[C@H]3[C@H]1C5", "note": "[morphine]", "values": [{"measurement": "analgesic effects in treatment of corneal pain", "setting": "corneal pain [1]", "result": "did not demonstrate analgesic effects"}, {"measurement": "analgesic effects in treatment of corneal pain", "setting": "corneal pain [2]", "result": "did not demonstrate analgesic effects"}]}, {"smiles": "CC(C)Cc1ccc(C(C)C(=O)O)cc1.N=C(N)NCCC[C@H](N)C(=O)O", "note": "(centres unmarked)", "values": [{"measurement": "effect on integrity of the cornea", "setting": "porcine cornea", "result": "adversely affected the integrity of the cornea"}]}, {"smiles": "Oc1ccc2c3c1O[C@H]1[C@@H](O)CC[C@@]4(O)[C@@H](C2)N(CC2CCC2)CC[C@]314", "note": "[nalbuphine]", "values": [{"measurement": "analgesic efficacy", "setting": "ulceration of the cornea", "result": "Neither did the opioid semi-synthetic nalbuphine applied in the form of 1% topical solution demonstrate analgesic efficacy"}]}]}
